In ChEMBL document CHEMBL4043085, “Anisucoumaramide, a Bioactive Coumarin from Clausena anisum-olens” (J Nat Prod, 2017):

Assays:
[1] = target: T1, Amine oxidase [flavin-containing] A (Homo sapiens, UniProt P21397); assay: Inhibition of human recombinant MAOA assessed as reduction in H2O2 production from p-tyramine at 100 uM incubated for 15 mins by Amplex red reagent based fluorimetric method; conditions: 0.25 h
T1 sequence (P21397 whole entry): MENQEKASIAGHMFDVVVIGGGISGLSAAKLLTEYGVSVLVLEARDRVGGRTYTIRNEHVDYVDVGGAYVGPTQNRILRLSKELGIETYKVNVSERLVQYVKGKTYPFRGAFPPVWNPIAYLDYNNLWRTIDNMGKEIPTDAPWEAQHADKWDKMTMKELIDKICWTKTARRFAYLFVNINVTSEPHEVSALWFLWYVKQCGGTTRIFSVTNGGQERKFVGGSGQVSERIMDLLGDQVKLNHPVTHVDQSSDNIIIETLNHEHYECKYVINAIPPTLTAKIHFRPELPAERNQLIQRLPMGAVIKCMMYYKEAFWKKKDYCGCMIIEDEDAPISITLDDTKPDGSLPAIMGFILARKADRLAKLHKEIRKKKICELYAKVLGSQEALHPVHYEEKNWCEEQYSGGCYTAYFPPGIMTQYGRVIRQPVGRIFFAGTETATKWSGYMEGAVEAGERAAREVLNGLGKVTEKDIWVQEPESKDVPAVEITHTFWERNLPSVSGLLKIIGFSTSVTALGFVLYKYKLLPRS

[2] = target: T2, Amine oxidase [flavin-containing] B (Homo sapiens, UniProt P27338); assay: Inhibition of human recombinant MAOB assessed as reduction in H2O2 production from p-tyramine incubated for 15 mins by Amplex red reagent based fluorimetric method
T2 sequence (P27338 whole entry): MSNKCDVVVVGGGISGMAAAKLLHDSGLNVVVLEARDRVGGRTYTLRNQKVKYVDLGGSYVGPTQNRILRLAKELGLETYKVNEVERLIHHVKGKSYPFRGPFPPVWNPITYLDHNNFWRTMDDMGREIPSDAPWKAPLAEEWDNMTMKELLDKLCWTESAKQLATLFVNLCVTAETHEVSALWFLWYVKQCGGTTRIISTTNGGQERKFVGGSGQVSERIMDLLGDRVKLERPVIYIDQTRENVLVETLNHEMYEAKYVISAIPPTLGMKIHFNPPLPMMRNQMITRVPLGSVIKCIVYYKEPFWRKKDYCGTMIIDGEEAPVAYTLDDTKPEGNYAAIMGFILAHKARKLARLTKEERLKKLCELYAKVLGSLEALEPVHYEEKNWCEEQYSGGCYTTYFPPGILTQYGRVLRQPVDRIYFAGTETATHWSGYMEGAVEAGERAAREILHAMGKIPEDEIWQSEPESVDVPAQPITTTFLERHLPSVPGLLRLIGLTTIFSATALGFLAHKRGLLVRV

Homo sapiens = species on record: Homo sapiens; assay: Selectivity index, ratio of IC50 for human recombinant MAOA to IC50 for human recombinant MAOB

inhibition (INH) [1]: Not Active
IC50 [2]: 144 nM
Ratio IC50 (Homo sapiens): > 696
Structure (SMILES): COc1c(OC/C=C(\C)C[C@@H]2C=C(CCC(N)=O)C(=O)O2)ccc2ccc(=O)oc12
